Assay results published in US11224561B2, “Skin cleansing composition” (KAO CORPORATION, priority 2017, dated 2022).

test system: not listed separately; assay: Detergency against keratotic plug during cleansing: collapse state of keratotic plugs; set-up: species or system human; settings: samples of Table 1, contact for 1 minute
Description: Keratotic plugs in the nasal region were removed with “Biore Nose Pack (manufactured by Kao Corporation)”, the resulting keratotic plugs on the pack were gently taken out with tweezers.
The resulting keratotic plugs were placed on a slide glass and were covered with a cover glass, and 0.05 mL of a sample was dropwise added to an edge of the cover glass. Consequently, the sample entered into the gap between the slide glass and the cover glass by capillary phenomenon and was brought into contact with the keratotic plugs. The contact of the keratotic plugs and the sample was recorded with a digital microscope (VHX-5000, manufactured by Keyence Corporation, magnification: 150×), and the penetration of the sample into the keratotic plugs and the collapse state of the keratotic plugs were evaluated after one minute from the contact of the keratotic plugs with the sample. The results of each evaluation are shown in the columns “Keratotic plug detergency (penetration)” and “Keratotic plug detergency (during cleansing)” in Tables. The measurements were performed at 25° C.
The penetration was relatively evaluated by criteria with 11 ratings from the rating 1 “the sample hardly penetrated into the keratotic plug” to the rating 11 “the sample penetrated to the center of the keratotic plug”. The collapsibility by the detergency against keratotic plug was relatively evaluated by criteria with 11 ratings from the rating 1 “almost no change is observed in the external appearance of the keratotic plug” to the rating 11 “peeling or separation is observed in the area from the surface layer to the central portion of the keratotic plug (the initial appearance of the keratotic plug is not retained)”.

Compound	collapse of keratotic plugs in contact with the sample (in words)
O=P([O-])([O-])O.[Na+].[Na+] [disodium hydrogen phosphate]	the collapse of the keratotic plugs did not progress
O=P([O-])([O-])[O-].[Na+].[Na+].[Na+] [trisodium phosphate]	the collapse of the keratotic plugs did not progress
O=C([O-])O.[Na+] [sodium hydrogen carbonate]	the collapse of the keratotic plugs did not progress
sodium polyoxyethylene (2) lauryl ether sulfate [POE (2) sodium lauryl sulfate]	the collapse of the keratotic plugs did not progress

test system: not listed separately; assay: Detergency against keratotic plug after washing with water: collapse state; set-up: species or system human; settings: samples of Table 1, washing with water
From the text: The penetration was relatively evaluated by criteria with 11 ratings from the rating 1 “the sample hardly penetrated into the keratotic plug” to the rating 11 “the sample penetrated to the center of the keratotic plug”. The collapsibility by the detergency against keratotic plug was relatively evaluated by criteria with 11 ratings from the rating 1 “almost no change is observed in the external appearance of the keratotic plug” to the rating 11 “peeling or separation is observed in the area from the surface layer to the central portion of the keratotic plug (the initial appearance of the keratotic plug is not retained)”. After one minute from the contact of the keratotic plugs with the sample, Kimwipes (registered trademark) was brought into contact with an edge of the cover glass to remove the sample under the cover glass. […] The results of the evaluation are shown in the column “Keratotic plug detergency (during washing with water)” in Table. The measurements were performed at 25° C.

Compound	swelling of sample-treated keratotic plugs on contact with water (in words)
O=P([O-])([O-])O.[Na+].[Na+] [disodium hydrogen phosphate]	did not swell even when contacted with water
O=P([O-])([O-])[O-].[Na+].[Na+].[Na+] [trisodium phosphate]	did not swell even when contacted with water
O=C([O-])O.[Na+] [sodium hydrogen carbonate]	did not swell even when contacted with water
CC(N)(CO)CO [AMPD, 2-amino-2-methyl-1,3-propanediol]	swelled when contacted with water

test system: not listed separately; assay: Detergency against keratotic plug during cleansing: penetration of the sample into keratotic plugs; set-up: species or system human; settings: samples of Table 1, contact for 1 minute
Description: Keratotic plugs in the nasal region were removed with “Biore Nose Pack (manufactured by Kao Corporation)”, the resulting keratotic plugs on the pack were gently taken out with tweezers. […] Consequently, the sample entered into the gap between the slide glass and the cover glass by capillary phenomenon and was brought into contact with the keratotic plugs. The contact of the keratotic plugs and the sample was recorded with a digital microscope (VHX-5000, manufactured by Keyence Corporation, magnification: 150×), and the penetration of the sample into the keratotic plugs and the collapse state of the keratotic plugs were evaluated after one minute from the contact of the keratotic plugs with the sample. The results of each evaluation are shown in the columns “Keratotic plug detergency (penetration)” and “Keratotic plug detergency (during cleansing)” in Tables. The measurements were performed at 25° C. The penetration was relatively evaluated by criteria with 11 ratings from the rating 1 “the sample hardly penetrated into the keratotic plug” to the rating 11 “the sample penetrated to the center of the keratotic plug”. The collapsibility by the detergency against keratotic plug was relatively evaluated by criteria with 11 ratings from the rating 1 “almost no change is observed in the external appearance of the keratotic plug” to the rating 11 “peeling or separation is observed in the area from the surface layer to the central portion of the keratotic plug (the initial appearance of the keratotic plug is not retained)”.

Compound	penetration of the sample into keratotic plugs (in words)
O=P([O-])([O-])O.[Na+].[Na+] [disodium hydrogen phosphate]	hardly penetrated into keratotic plugs
O=P([O-])([O-])[O-].[Na+].[Na+].[Na+] [trisodium phosphate]	hardly penetrated into keratotic plugs
O=C([O-])O.[Na+] [sodium hydrogen carbonate]	hardly penetrated into keratotic plugs
CC(N)(CO)CO [AMPD, 2-amino-2-methyl-1,3-propanediol]	penetrated into keratotic plugs
sodium polyoxyethylene (2) lauryl ether sulfate [POE (2) sodium lauryl sulfate]	hardly penetrated into the keratotic plugs

test system: insoluble protein (seine protein); assay: Effect of suppressing protein aggregation (precipitation of insoluble protein); settings: sample of Table 1
Description: Thirty milliliters of a sample and 0.06 g of an insoluble protein (seine protein) were placed in a 35-mL standard glass bottle, and the concentration of the insoluble protein was adjusted to 0.2 mass % (test sample). Separately, a standard sample was prepared by using water instead of the sample and adjusting the concentration of the insoluble protein to 0.2 mass %. Subsequently, the standard glass bottles were sufficiently shaken and stirred up and down (shake width: 15 cm, 20 times at a rate of 5 times for 3 seconds) in a thermostatic chamber of 25° C. and were left to stand for 3 minutes. The precipitation state of the insoluble protein was then visually verified, and the ratio of the amount of the precipitated standard sample to the amount of the precipitated test sample (the height of the precipitate in each standard glass bottle was measured as the precipitation amount), (precipitation amount of standard sample)/(precipitation amount of test sample), was calculated. A higher ratio indicates a higher effect of suppressing protein aggregation.

Compound	action on proteins (in words)
sodium polyoxyethylene (2) lauryl ether sulfate [POE (2) sodium lauryl sulfate]	the action on proteins was strong to dissolve the proteins

test system: not given; assay: not given; settings: at 25° C.; cited from earlier work

Compound	pKa
CC(C)(N)CO [Component (X3)]	9.72
